What was measured:
[1] = target: T1, GST-JAK2(808-1132) (Homo sapiens, UniProt O60674); experiment: JAK2 kinase assay (Caliper mobility shift, LabChip 3000); type: biochemical
T1 construct: GST-JAK2(808-1132); purchased Invitrogen (Carlsbad, USA) #4288
Method in brief: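 Recombinant GST-JAK2(808-1132) kinase domain with FITC-labelled JAK3tide peptide substrate and ATP; 60 min at 30 °C, EDTA stop. Substrate/product ratio read by microfluidic mobility shift; compounds at 8 final concentrations, 10 to 0.003 μM.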

[2] = test system: JAK1/JAK2-dependent nuclear translocation of STAT1-GFP in HT1080 fibrosarcoma cells; experiment: STAT1 nuclear translocation assay (Cellomics), IFN-γ stimulated HT1080 STAT1-GFP cells; type: cell-based; settings: Homo sapiens, HT-1080, STAT1 translocation pathway
Method in brief: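 HT1080 cells stably expressing STAT1-GFP, pre-treated 30 min with compound (10 μM–0.003 μM, 0.1% DMSO), then stimulated 2 h with 100 ng/ml IFN-γ, fixed and Hoechst-stained. Nuclear-cytoplasmic GFP differential imaged over ≥1000 cells/well, normalised to unstimulated and DMSO-stimulated wells for IC50.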

T1 sequence (O60674 808-1132): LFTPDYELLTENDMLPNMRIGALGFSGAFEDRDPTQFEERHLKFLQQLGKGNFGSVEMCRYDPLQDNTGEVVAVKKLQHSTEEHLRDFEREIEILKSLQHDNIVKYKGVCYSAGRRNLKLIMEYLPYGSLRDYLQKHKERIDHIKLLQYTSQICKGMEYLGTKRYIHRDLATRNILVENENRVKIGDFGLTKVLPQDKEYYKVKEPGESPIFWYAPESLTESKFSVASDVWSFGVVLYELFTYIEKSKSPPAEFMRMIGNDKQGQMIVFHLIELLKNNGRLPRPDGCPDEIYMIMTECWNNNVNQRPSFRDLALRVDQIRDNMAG

| SMILES | IC50 [1] [µM] | IC50 [2] [µM] |
| --- | --- | --- |
| O=C(c1ccc(Nc2ncc3ccn(-c4ccc(CN5CCS(=O)(=O)CC5)cc4)c3n2)cc1)N1CCOCC1 [Example 153, (4-{7-[4-(1,1-Dioxido-thiomorpholin-4-ylmethyl)-phenyl]-7H-pyrrolo[2,3-d]pyrimidin-2-ylamino}-phenyl)-morpholin-4-yl-methanone] | < 0.003 | 0.0175 |
| COc1cc(Nc2ncc3ccn(-c4ccc(C(=O)N5CCN(C)CC5)c(F)c4)c3n2)ccc1F [Example 154, {2-Fluoro-4-[2-(4-fluoro-3-methoxy-phenylamino)-pyrrolo[2,3-d]pyrimidin-7-yl]-phenyl}-(4-methyl-piperazin-1-yl)-methanone] | 0.25 | 6.44 |
| Cc1ccc(Nc2ncc3ccn(-c4ccc(C(=O)N5CCN(C)CC5)c(F)c4)c3n2)cc1C [Example 155, {4-[2-(3,4-Dimethyl-phenylamino)-pyrrolo[2,3-d]pyrimidin-7-yl]-2-fluoro-phenyl}-(4-methyl-piperazin-1-yl)-methanone] | 0.2 | 3.27 |
| Cc1ccc(Nc2ncc3ccn(-c4ccc(CC(=O)N5CCS(=O)(=O)CC5)c(F)c4)c3n2)cc1C [Example 156, 2-{4-[2-(3,4-Dimethyl-phenylamino)-pyrrolo[2,3-d]pyrimidin-7-yl]-2-fluoro-phenyl}-1-(1,1-dioxido-1-thiomorpholin-4-yl)-ethanone] | 0.013 | 0.06 |
| O=C(c1ccc(Nc2ncc3ccn(-c4ccc(CN5CCOCC5)c(F)c4)c3n2)cc1)N1CCOCC1 [Example 157, {4-[7-(3-Fluoro-4-morpholin-4-ylmethyl-phenyl)-7H-pyrrolo[2,3-d]pyrimidin-2-ylamino]-phenyl}-morpholin-4-yl-methanone] | 0.0061 | 0.13 |
| CN1CCN(C(=O)c2ccc(Nc3ncc4ccn(-c5ccc(CN6CCOCC6)c(F)c5)c4n3)cc2F)CC1 [Example 158, {2-Fluoro-4-[7-(3-fluoro-4-morpholin-4-ylmethyl-phenyl)-7H-pyrrolo[2,3-d]pyrimidin-2-ylamino]-phenyl}-(4-methyl-piperazin-1-yl)-methanone] | 0.0094 | 0.265 |
| CCN1CCN(C(=O)C2(c3ccc(-n4ccc5cnc(Nc6ccc(C)c(C)c6)nc54)cc3)CC2)CC1 [Example 159, (1-{4-[2-(3,4-Dimethyl-phenylamino)-pyrrolo[2,3-d]pyrimidin-7-yl]-phenyl}-cyclopropyl)-(4-ethyl-piperazin-1-yl)-methanone] | 0.0465 | 1.12 |
| Cc1ccc(Nc2ncc3ccn(-c4ccc(CN5CCOCC5)cc4)c3n2)cc1C [Example 160, (3,4-Dimethyl-phenyl)-[7-(4-morpholin-4-ylmethyl-phenyl)-7H-pyrrolo[2,3-d]pyrimidin-2-yl]-amine] | 0.0418 | 0.973 |
| Cc1ccc(Nc2ncc3cc(C)n(-c4ccc(CC(=O)N5CCN(C)CC5)cc4)c3n2)cc1C [Example 161, 2-{4-[2-(3,4-Dimethyl-phenylamino)-6-methyl-pyrrolo[2,3-d]pyrimidin-7-yl]-phenyl}-1-(4-methyl-piperazin-1-yl)-ethanone] | 0.87 | 9.35 |
| COc1cc(Nc2ncc3cc(C)n(-c4ccc(CC(=O)N5CCN(C)CC5)cc4)c3n2)ccc1F [Example 162, 2-{4-[2-(4-Fluoro-3-methoxy-phenylamino)-6-methyl-pyrrolo[2,3-d]pyrimidin-7-yl]-phenyl}-1-(4-methyl-piperazin-1-yl)-ethanone] | 0.305 | 9.7 |
| Cc1ccc(Nc2ncc3cc(C)n(-c4ccc(CN5CCOCC5)c(F)c4)c3n2)cc1C [Example 163, (3,4-Dimethyl-phenyl)-[7-(3-fluoro-4-morpholin-4-ylmethyl-phenyl)-6-methyl-7H-pyrrolo[2,3-d]pyrimidin-2-yl]-amine] | 0.295 | 23.5 |
| COc1cc(Nc2ncc3cc(C)n(-c4ccc(CN5CCOCC5)c(F)c4)c3n2)ccc1F [Example 164, (4-Fluoro-3-methoxy-phenyl)-[7-(3-fluoro-4-morpholin-4-ylmethyl-phenyl)-6-methyl-7H-pyrrolo[2,3-d]pyrimidin-2-yl]-amine] | 0.23 | 10.7 |
| CCOc1ccc(Nc2ncc3ccn(-c4ccc(CC(=O)N5CCN(CC)CC5)cc4)c3n2)cc1OCC [Example 165, 2-{4-[2-(3,4-Diethoxy-phenylamino)-pyrrolo[2,3-d]pyrimidin-7-yl]-phenyl}-1-(4-ethyl-piperazin-1-yl)-ethanone] | < 0.003 | 0.125 |
| Cc1ccc(Nc2ncc3ccn(-c4ccc(CC(=O)N5CCOCC5)cc4)c3n2)cc1C [Example 166, 2-{4-[2-(3,4-Dimethyl-phenylamino)-pyrrolo[2,3-d]pyrimidin-7-yl]-phenyl}-1-morpholin-4-yl-ethanone] | 0.0034 | 0.145 |
| CCOc1ccc(Nc2ncc3cc(C)n(-c4ccc(CC(=O)N5CCN(C)CC5)cc4)c3n2)cc1OCC [Example 167, 2-{4-[2-(3,4-Diethoxy-phenylamino)-6-methyl-pyrrolo[2,3-d]pyrimidin-7-yl]-phenyl}-1-(4-methyl-piperazin-1-yl)-ethanone] | 0.039 | 2.07 |
| CCOc1ccc(Nc2ncc3cc(C)n(-c4ccc(CN5CCOCC5)c(F)c4)c3n2)cc1OCC [Example 168, (3,4-Diethoxy-phenyl)-[7-(3-fluoro-4-morpholin-4-ylmethyl-phenyl)-6-methyl-7H-pyrrolo[2,3-d]pyrimidin-2-yl]-amine] | 0.0305 | 3.91 |
| Cc1ccc(Nc2ncc3ccn(-c4ccc(C(=O)N5CCOCC5)cc4)c3n2)cc1C [Example 169, {4-[2-(3,4-Dimethyl-phenylamino)-pyrrolo[2,3-d]pyrimidin-7-yl]-phenyl}-morpholin-4-yl-methanone] | 0.0043 | 0.093 |
| Cc1ccc(Nc2ncc3ccn(-c4ccc(C(=O)N5CCN(C)CC5)cc4)c3n2)cc1C [Example 170, {4-[2-(3,4-Dimethyl-phenylamino)-pyrrolo[2,3-d]pyrimidin-7-y]-phenyl}-(4-methyl-piperazin-1-yl)-methanone] | 0.017 | 0.374 |
| CCN1CCN(C(=O)c2ccc(Nc3ncc4ccn(-c5cc(F)c(CN6CCOCC6)c(F)c5)c4n3)cc2)CC1 [Example 171, {4-[7-(3,5-Difluoro-4-morpholin-4-ylmethyl-phenyl)-7H-pyrrolo[2,3-d]pyrimidin-2-ylamino]-phenyl}-(4-ethyl-piperazin-1-yl)-methanone] | < 0.003 | 0.26 |
| CCN1CCN(C(=O)Cc2cccc(Nc3ncc4ccn(-c5cc(F)c(CN6CCOCC6)c(F)c5)c4n3)c2)CC1 [Example 172, 2-{3-[7-(3,5-Difluoro-4-morpholin-4-ylmethyl-phenyl)-7H-pyrrolo[2,3-d]pyrimidin-2-ylamino]-phenyl}-1-(4-ethyl-piperazin-1-yl)-ethanone] | < 0.003 | 0.22 |
| CN1CCN(Cc2ccc(Nc3ncc4ccn(-c5cc(F)c(CN6CCOCC6)c(F)c5)c4n3)cc2)CC1 [Example 173, [7-(3,5-Difluoro-4-morpholin-4-ylmethyl-phenyl)-7H-pyrrolo[2,3-d]pyrimidin-2-yl]-[4-(4-methyl-piperazin-1-ylmethyl)-phenyl]-amine] | 0.0055 | 0.235 |
| CN1CCN(c2cccc(Nc3ncc4ccn(-c5cc(F)c(CN6CCOCC6)c(F)c5)c4n3)c2)CC1 [Example 174, [7-(3,5-Difluoro-4-morpholin-4-ylmethyl-phenyl)-7H-pyrrolo[2,3-d]pyrimidin-2-yl]-[3-(4-methyl-piperazin-1-yl)-phenyl]-amine] | < 0.003 | 0.15 |
| O=C(c1ccc(Nc2ncc3ccn(-c4ccc(CN5CCOCC5)c(Cl)c4)c3n2)cc1)N1CCOCC1 [Example 175, {4-[7-(3-Chloro-4-morpholin-4-ylmethyl-phenyl)-7H-pyrrolo[2,3-d]pyrimidin-2-ylamino]-phenyl}-morpholin-4-yl-methanone] | < 0.003 | 0.275 |
| COCc1ccc(Nc2ncc3ccn(-c4ccc(CN5CCOCC5)c(Cl)c4)c3n2)cc1 [Example 176, [7-(3-Chloro-4-morpholin-4-yl methyl-phenyl)-7H-pyrrolo[2,3-d]pyrimidin-2-yl]-(4-methoxymethyl-phenyl)-amine] | 0.0073 | 1.55 |
| CCOc1ccc(Nc2ncc3ccn(-c4ccc(CN5CCOCC5)c(Cl)c4)c3n2)cc1OCC [Example 177, [7-(3-Chloro-4-morpholin-4-ylmethyl-phenyl)-7H-pyrrolo[2,3-d]pyrimidin-2-yl]-(3,4-diethoxy-phenyl)-amine] | 0.0053 | 1.03 |
| O=C(c1ccc(Nc2ncc3ccn(-c4cc(F)c(CN5CCCC5)c(F)c4)c3n2)cc1)N1CCOCC1 [Example 178, {4-[7-(3,5-Difluoro-4-pyrrolidin-1-ylmethyl-phenyl)-7H-pyrrolo[2,3-d]pyrimidin-2-ylamino]-phenyl}-morpholin-4-yl-methanone] | 0.0091 | 0.79 |
| COCc1ccc(Nc2ncc3ccn(-c4cc(F)c(CN5CCCC5)c(F)c4)c3n2)cc1 [Example 179, [7-(3,5-Difluoro-4-pyrrolidin-1-ylmethyl-phenyl)-7H-pyrrolo[2,3-d]pyrimidin-2-yl]-(4-methoxymethyl-phenyl)-amine] | 0.0104 | 1.52 |
| O=S1(=O)CCN(Cc2c(F)cc(-n3ccc4cnc(Nc5ccccc5)nc43)cc2F)CC1 [Example 180, {7-[4-(1,1-Dioxido-thiomorpholin-4-ylmethyl)-3,5-difluoro-phenyl]-7H-pyrrolo[2,3-d]pyrimidin-2-yl}-phenyl-amine] | < 0.003 | 0.12 |

— patent US8420657B2 (Novartis AG, priority 2008, dated 2013)
